Measurements published in paper PMC3823594, “Conformational Changes Underlying Pore Dilation in the Cytoplasmic Domain of Mammalian Inward Rectifier K^+ Channels” (PLoS ONE, 2013).
Where a chain is given by its changes, count along the chain named.

What was measured:
Assay in all cases: Two-electrode voltage clamp, ACh-dependent (m2R-dependent) K+ current activation
Assay type in all cases: cell-based
Kir3.2 M313S = molecular target: T1, Kir3.2 M313S (Mus musculus, UniProt P48542, I313S); conditions: Kir3.2 M313S with porcine m2R in Xenopus oocytes; −120 mV; Hill equation fit
T1 sequence (P48542 19-425 I313S): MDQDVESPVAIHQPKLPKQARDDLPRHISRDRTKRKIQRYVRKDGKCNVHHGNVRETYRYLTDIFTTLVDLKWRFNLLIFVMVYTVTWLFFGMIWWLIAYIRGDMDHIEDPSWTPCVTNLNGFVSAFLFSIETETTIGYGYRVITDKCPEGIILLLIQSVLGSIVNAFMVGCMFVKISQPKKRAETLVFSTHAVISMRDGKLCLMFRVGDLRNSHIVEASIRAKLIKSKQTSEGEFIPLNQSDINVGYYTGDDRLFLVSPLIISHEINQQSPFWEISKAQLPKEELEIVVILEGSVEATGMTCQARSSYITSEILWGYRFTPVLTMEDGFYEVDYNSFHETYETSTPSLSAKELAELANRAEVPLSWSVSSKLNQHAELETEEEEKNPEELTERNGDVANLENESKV
T1 sequence (P06199 1-466 partner): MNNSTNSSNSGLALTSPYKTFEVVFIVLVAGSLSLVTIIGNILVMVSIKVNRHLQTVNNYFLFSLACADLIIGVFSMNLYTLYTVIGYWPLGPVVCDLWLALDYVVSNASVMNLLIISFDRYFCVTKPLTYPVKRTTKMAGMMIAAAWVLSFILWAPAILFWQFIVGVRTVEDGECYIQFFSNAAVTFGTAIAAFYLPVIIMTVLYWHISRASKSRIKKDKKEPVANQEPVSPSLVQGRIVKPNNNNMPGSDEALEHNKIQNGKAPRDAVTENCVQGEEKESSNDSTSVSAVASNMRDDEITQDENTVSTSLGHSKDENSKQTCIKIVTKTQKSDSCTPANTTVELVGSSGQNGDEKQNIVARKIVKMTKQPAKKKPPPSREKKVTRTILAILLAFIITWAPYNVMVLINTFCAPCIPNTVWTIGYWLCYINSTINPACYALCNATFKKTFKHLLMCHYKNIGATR
Text: (§1) The mouse Kir3.2d isoform was subjected to functional analyses. The amino acid numbers correspond to the longest mouse Kir3.2 isoform. Point mutations were introduced using the QuikChange site-directed mutagenesis kit (Stratagene, La Jolla, CA), and the presence of the mutations was confirmed by direct DNA sequencing. The care of Xenopus laevis was in accordance with the guideline of the Institute of Experimental Animal Sciences, Osaka University. The protocol was approved by the Animal Experiment Committee of Osaka University. The frogs were deeply anesthetized by immersing in 0.2% tricaine methanesulfonate for 20 min at 18°C. A portion of an ovary lobe was surgically removed and incubated with collagenase to remove follicular cells. The oocytes were injected with the cRNAs of Kir3.2 and porcine m2-muscarinic receptor (m2R), and maintained in modified Barth’s solution at 18°C with daily solution changes. Electrophysiological studies were undertaken 48–72 h later at room temperature (20–25°C). Two-electrode voltage-clamp recordings from oocytes were performed using a GeneClamp 500B amplifier (Axon Instruments, Sunnyvale, CA). […] The bath solution contained 40 mM KCl, 50 mM NaCl, 3 mM MgCl2, 0.15 mM niflumic acid, and 5 mM HEPES-KOH (pH 7.4). The currents were recorded in the absence or presence of various concentrations of acetylcholine (ACh). Ba^2+ (3 mM) was added at the end of the recording to estimate the endogenous leak current. The data are expressed as mean values ± standard error of the mean. For the quantitative estimation of ACh-dependent current responses of the wild-type (WT) and mutant channels, the current amplitudes at the end of test pulses at each ACh concentration ([ACh]) were fitted using the following equation:
(§2) I=min+[(max−min)/(1+(EC50/[ACh])^nH)]
(§3) where I is the current amplitude measured at the [ACh], n H is the Hill coefficient, and EC50 is the concentration that induces 50% of the maximal response. […] The values of n H and EC50 were calculated using a non-linear least-squares best fit (SigmaPlot 9; Systat Software). Statistical analyses were performed by one-way ANOVA with post-hoc tests.

Kir3.2 M313G = molecular target: T2, Kir3.2 M313G (Mus musculus, UniProt P48542, I313G); conditions: Kir3.2 M313G with porcine m2R in Xenopus oocytes; −120 mV; Hill equation fit
T2 sequence (P48542 19-425 I313G): T1 sequence (P48542 19-425 I313S) with S295G
T2 sequence (P06199 1-466 partner): T1 sequence (P06199 1-466 partner)
Text: as §1, §2, §3

Kir3.2 E236A = molecular target: T3, Kir3.2 E236A (Mus musculus, UniProt P48542, E236A); conditions: Kir3.2 E236A with porcine m2R in Xenopus oocytes; −120 mV; Hill equation fit
T3 sequence (P48542 19-425 E236A): T1 sequence (P48542 19-425 I313S) with E218A, S295I
T3 sequence (P06199 1-466 partner): T1 sequence (P06199 1-466 partner)
Text: as §1, §2, §3

With `CC(=O)OCC[N+](C)(C)C` [ACh, acetylcholine] the Hill coefficient (Kir3.2 M313S) was 1.04 ± 0.05, the Hill coefficient (Kir3.2 M313G) was 0.98 ± 0.07 and the Hill coefficient (Kir3.2 E236A) was 1.12 ± 0.04.
